This is an account of results in patent US20260158136A1, “MEDICAMENT FOR TREATMENT AND/OR PREVENTION OF CANCER” (TORAY INDUSTRIES, INC., priority 2022, published 2026).

Common to all, as to assay type: cell-based
The test system of test [1] is human colon cancer cell line (HCT116). The test is described as follows: THP-1-mediated phagocytic activity against HCT116, anti-CAPRIN-1 antibody with palbociclib or abemaciclib (Example 2A). The settings on record: Student's t test, p<0.001; with anti-CAPRIN-1 antibody; FIG. 1. On the procedure:
Specifically, in CDK inhibitor combination test group, the indicated drug used in combination was applied to human cancer cells, and then the cancer cells were cocultured with human monocytic cells (THP-1) in the presence of the anti-CAPRIN-1 antibody, and the antibody-mediated phagocytic activity against the cancer cells by THP-1 was evaluated.
The human-derived cancer cell used was a colon cancer cell line HCT116. On a 6-well plate, the human-derived cancer cells were cultured for 2 days in the presence of palbociclib (10 μM) or abemaciclib (1 μM) for the CDK inhibitor combination test group. As a control, a test group without a drug used in combination, in which only the anti-CAPRIN-1 antibody was added, was established. […]
(§1) Each cancer cell line after the culture was dissociated with TrypLE Express (Thermo), and the cancer cells were stained by the addition of calcein-AM at a final concentration of 0.04 μg/mL and incubation at 37° C. for 10 minutes. […] Further, dead cells were stained with propidium iodide (PI) (final concentration: 0.1 μg/mL), followed by the measurement of fluorescence from the cells by flow cytometry. […] Thus, the phagocytic activity in this evaluation system was calculated as the ratio (%) of APC-positive/calcein-AM-positive cells to the whole calcein-AM-positive population.

Test [2] has the same test system. The test is described as follows: THP-1-mediated phagocytic activity against HCT116, anti-CAPRIN-1 antibody with palbociclib or abemaciclib, control IgG included (Example 2B). Particulars: Dunnett's test, p<0.001; anti-CAPRIN-1 antibody treatment group; FIG. 2. As for the experimental part: Specifically, in CDK inhibitor combination test group, the indicated drug used in combination was applied to human cancer cells, and then the cancer cells were cocultured with human monocytic cells (THP-1) in the presence of the anti-CAPRIN-1 antibody, and the antibody-mediated phagocytic activity against the cancer cells by THP-1 was evaluated. A human IgG antibody (Sigma-Aldrich Co. LLC, Cat. No.: 4506) was used as a control antibody.
The human-derived cancer cell used was a colon cancer cell line HCT116. On a 6-well plate, the human-derived cancer cells were cultured for 2 days in the presence of the palbociclib ([…]) or abemaciclib (1 μM), for the CDK inhibitor combination test group. As a control, a test group without a drug used in combination, in which only the anti-CAPRIN-1 antibody was added, was established. […]
as §1

For test [3] the test system is unchanged. The test is described as follows: THP-1-mediated phagocytic activity against HCT116, anti-CAPRIN-1 antibody with palbociclib or cisplatin (Example 5). Particulars: for phagocytic activity of combination test group compared with test group without a drug used in combination: Dunnett's test, with anti-CAPRIN-1 antibody, FIG. 5; for phagocytic activity against cancer cells: drug combination test group: HCT116 cultured 2 days with palbociclib 10 μM or cisplatin 1 μM, then anti-CAPRIN-1 humanized antibody #1 1 μg/mL + THP-1, 1 h. On the procedure:
Specifically, in each inhibitor combination test group, the indicated drug used in combination was applied to human cancer cells, and then the cancer cells were cocultured with human monocytic cells (THP-1) in the presence of the anti-CAPRIN-1 antibody, and the antibody-mediated phagocytic activity against the cancer cells by THP-1 was evaluated.
The human-derived cancer cell used was a colon cancer cell line HCT116. On a 6-well plate, the human-derived cancer cells were cultured for 2 days in the presence of the respective drugs used in combination, for the palbociclib combination test group. Specifically, palbociclib was added at a concentration of 10 μM and cisplatin at a concentration of 1 μM to HCT 116. As a control, a test group without a drug used in combination, in which only the anti-CAPRIN-1 antibody was added, was established. In the control group, the cancer cells were cultured for 2 days without addition of the drug used in combination beforehand.
(§2) Each cancer cell line after the culture was dissociated with TrypLE Express (Thermo), and the cancer cells were stained by the addition of calcein-AM at a final concentration of 0.04 μg/mL and incubation at 37° C. for 10 minutes. Next, the cells were dispensed at 1×10^4 cancer cells per well to a 96-well plate, and the anti-CAPRIN-1 antibody at a final concentration of 1 μg/mL and 10×10^5 THP-1 cells were added to each well, followed by culture at 37° C. for 1 hour under a condition of 5% CO2. Then, the cells were washed with PBS (phosphate buffer solution) containing 1% FBS (fetal bovine serum), and the human monocytic cells were stained through a reaction with an APC (allophycocyanin)-labeled anti-human CD45 antibody (final concentration: 0.25 μg/mL). Further, dead cells were stained with propidium iodide (PI) (final concentration: 0.1 μg/mL), followed by the measurement of fluorescence from the cells by flow cytometry. PI-positive dead cells were excluded from analysis. The human monocytic cells THP-1 recognize an antibody bound onto cancer cells and phagocytize the cancer cells. At that time, if the cancer cells have been stained with calcein-AM, the monocytic cells ingesting the cancer cells by phagocytosis also become positive to calcein-AM. Thus, the phagocytic activity in this evaluation system was calculated as the ratio (%) of APC-positive/calcein-AM-positive cells to the whole calcein-AM-positive population.

Test [4] shares this test system. The test is described as follows: THP-1-mediated phagocytic activity against HCT116, anti-CAPRIN-1 antibody with ribociclib (Example 3). On the procedure:
Specifically, in CDK inhibitor combination test group, the indicated ribociclib was applied to human cancer cells, and then the cancer cells were cocultured with human monocytic cells (THP-1) in the presence of the anti-CAPRIN-1 antibody, and the antibody-mediated phagocytic activity against the cancer cells by THP-1 was evaluated.
The human-derived cancer cell used was a colon cancer cell line HCT116. On a 6-well plate, the human-derived cancer cells were cultured for 2 days in the presence of the ribociclib (30 μM), for the CDK inhibitor combination test group. As a control, a test group without a drug used in combination, in which only the anti-CAPRIN-1 antibody was added, was established. In the control group, the cancer cells were cultured for 2 days without addition of the drug used in combination beforehand.
as §2, with “5×10^3” for “1×10^4”, “1.25×10^5” for “10×10^5”, “At that time, if the cancer cells have been stained with calcein-AM, the monocytic cells ingesting the cancer cells by phagocytosis also become positive to calcein-AM.” left out

For test [5] the test system is unchanged. The test is described as follows: THP-1-mediated phagocytic activity against HCT116, anti-CAPRIN-1, anti-CD20 or anti-HER-2 antibody alone or with palbociclib (Example 4). On the procedure:
The human-derived cancer cell used was a colon cancer cell line HCT116. On a 6-well plate, the human-derived cancer cells were cultured for 2 days in the presence of the respective drugs used in combination for the palbociclib combination test group. Specifically, palbociclib was added at a concentration of 10 μM to HCT 116. […] In the control group, the cancer cells were cultured for 2 days without addition of palbociclib beforehand.
as §2, with “Next, the cells were dispensed at 1×10^4 cancer cells per well to a 96-well plate, and the anti-CAPRIN-1 antibody at a final concentration of 1 μg/mL and 10×10^5 THP-1 cells were added to each well, followed by culture at 37° C. for 1 hour under a condition of 5% CO2.” left out, “[…]).” for “μg/mL).”

Consider `CCN1CCN(Cc2ccc(Nc3ncc(F)c(-c4cc(F)c5nc(C)n(C(C)C)c5c4)n3)nc2)CC1` [abemaciclib, N-[5-[(4-ethylpiperazin-1-yl)methyl]pyridin-2-yl]-5-fluoro-4-(7-fluoro-2-methyl-3-propan-2-ylbenzimidazol-5-yl)pyrimidin-2-amine], for which the “phagocytic activity of combination test group compared with test group without a drug used in combination” value in test [1] and in test [2] was “significantly higher” in each case.

Turning to `N.N.[Cl][Pt][Cl]` [cisplatin], in test [3], the “phagocytic activity of combination test group compared with test group without a drug used in combination” value was “no significant change” and the “phagocytic activity against cancer cells” value is given as no more than 23%.

Regarding `CC(=O)c1c(C)c2cnc(Nc3ccc(N4CCNCC4)cn3)nc2n(C2CCCC2)c1=O` [palbociclib, 6-acetyl-8-cyclopentyl-5-methyl-2-[(5-piperazin-1-ylpyridin-2-yl)amino]pyrido[2,3-d]pyrimidin-7-one], the “phagocytic activity of combination test group compared with test group without a drug used in combination” value in test [1], in test [2] and in test [3] was “significantly higher” throughout. The “phagocytic activity against cancer cells” value in test [3] is given as no less than 54%.

Regarding `CN(C)C(=O)c1cc2cnc(Nc3ccc(N4CCNCC4)cn3)nc2n1C1CCCC1` [ribociclib, 7-cyclopentyl-N,N-dimethyl-2-[(5-piperazin-1-ylpyridin-2-yl)amino]pyrrolo[2,3-d]pyrimidine-6-carboxamide], the “phagocytic activity of combination test group compared with test group without a drug used in combination” value in test [4] (Dunnett's test, p<0.001, with anti-CAPRIN-1 antibody, FIG. 3) is given as “significantly higher”. Also, in test [4] (combination versus antibody alone, HCT116), the “increase of antitumor effect of the anti-CAPRIN-1 antibody by the combination” value was no less than 2.5 times. Further, the “phagocytic activity against cancer cells” value in test [4] (ribociclib combination test group: HCT116 cultured 2 days with ribociclib 30 μM, then anti-CAPRIN-1 humanized antibody #1 1 μg/mL + THP-1, 1 h) was no less than 58%.

Take “anti-CD20 antibody: anti-CD20 antibody ("Rituxan") purchased from Chugai Pharmaceutical Co., Ltd.”: the “effect of palbociclib combination on phagocytic activity compared with antibody without a drug used in combination” value in test [5] (palbociclib 10 μM, Dunnett's test, FIG. 4) is “not remarkably increased”. For the same molecule, the “phagocytic activity against cancer cells” value in test [5] (palbociclib combination test group: HCT116 cultured 2 days with palbociclib 10 μM, then antibody at final concentration 1 μg/mL + THP-1, 1 h) is reported as no more than 11%; in test [5] (test group without a drug used in combination: antibody only, 1 μg/mL + THP-1, 1 h) it was no more than 7%.
